In this test the target is T1, E-selectin (Homo sapiens, UniProt P16581).
T1 sequence (P16581 whole entry): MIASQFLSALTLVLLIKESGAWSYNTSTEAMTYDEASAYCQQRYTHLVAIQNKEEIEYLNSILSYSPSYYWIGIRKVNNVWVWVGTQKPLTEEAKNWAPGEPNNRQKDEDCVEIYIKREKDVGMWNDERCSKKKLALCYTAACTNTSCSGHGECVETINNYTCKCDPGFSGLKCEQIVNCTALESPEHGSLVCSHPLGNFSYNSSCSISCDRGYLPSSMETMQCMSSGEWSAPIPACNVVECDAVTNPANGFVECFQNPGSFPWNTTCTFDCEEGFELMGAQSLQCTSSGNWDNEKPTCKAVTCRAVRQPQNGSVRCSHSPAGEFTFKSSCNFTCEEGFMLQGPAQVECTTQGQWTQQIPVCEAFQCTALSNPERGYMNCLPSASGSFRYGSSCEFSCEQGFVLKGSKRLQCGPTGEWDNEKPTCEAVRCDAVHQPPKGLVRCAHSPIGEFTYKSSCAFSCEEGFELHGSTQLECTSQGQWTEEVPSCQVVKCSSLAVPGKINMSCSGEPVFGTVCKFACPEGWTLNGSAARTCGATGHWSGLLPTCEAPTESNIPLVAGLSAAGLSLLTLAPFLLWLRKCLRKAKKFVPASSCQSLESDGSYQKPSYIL
Nature of the test: Compound was tested for inhibition of HL60 cell adhesion to recombinant Selectin E IgG fusion protein obtained from transfected COS cells. Type of test: functional, cell-based, HL-60.

Each structure is given as a SMILES string.

One may read the IC50 as the concentration that inhibits the measured activity by half. Take `CC(=O)N[C@@H]1[C@H](OCCCCCCNC(=O)[C@H]2CC[C@H](CN3C(=O)C=CC3=O)CC2)O[C@@H](CO)[C@@H](O[C@@H]2O[C@@H](CO)[C@H](O)[C@H](O[C@]3(C(=O)O)C[C@@H](O)[C@@H](NC(C)=O)[C@H]([C@H](O)[C@H](O)CO)O3)[C@@H]2O)[C@@H]1O[C@@H]1O[C@@H](C)[C@@H](O)[C@H](O)[C@@H]1O`: the IC50 is 280 µM.
For the compound `CC(=O)N[C@@H]1[C@H](OCCCCCC/N=C(S)/N=C2\C=CC(=C3c4ccc(O)cc4Oc4cc(O)ccc43)C(C(=O)O)=C2)O[C@@H](CO)[C@@H](O[C@@H]2O[C@@H](CO)[C@H](O)[C@H](O[C@]3(C(=O)O)C[C@@H](O)[C@@H](NC(C)=O)[C@H]([C@H](O)[C@H](O)CO)O3)[C@@H]2O)[C@@H]1O[C@@H]1O[C@@H](C)[C@@H](O)[C@H](O)[C@@H]1O`, the IC50 was 650 µM.
Then `CC(=O)N[C@@H]1[C@H](OCCCCCCNC(=O)CCCC[C@@H]2SC[C@@H]3NC(=O)N[C@@H]32)O[C@@H](CO)[C@@H](O[C@@H]2O[C@@H](CO)[C@H](O)[C@H](O[C@]3(C(=O)O)C[C@@H](O)[C@@H](NC(C)=O)[C@H]([C@H](O)[C@H](O)CO)O3)[C@@H]2O)[C@@H]1O[C@@H]1O[C@@H](C)[C@@H](O)[C@H](O)[C@@H]1O`, with 590 µM.
The value for `CC(=O)N[C@H]1[C@H]([C@H](O)[C@H](O)CO)O[C@@](O[C@@H]2[C@H](O)[C@H](O[C@H]3[C@H](O[C@@H]4O[C@@H](C)[C@@H](O)[C@H](O)[C@@H]4O)[C@H](NC(C)=O)[C@H](NC(=O)[C@H](C)NC(=O)[C@H](CC(=O)O)NC(=O)CNC(=O)[C@@H](N)CCCN=C(N)N)O[C@H]3CO)O[C@@H](CO)[C@@H]2O)(C(=O)O)C[C@H]1O` was greater than 1000 µM; that for `CC(=O)N[C@H]1[C@H]([C@H](O)[C@H](O)CO)O[C@@](O[C@@H]2[C@H](O)[C@H](O[C@H]3[C@H](O[C@@H]4O[C@@H](C)[C@@H](O)[C@H](O)[C@@H]4O)[C@H](NC(C)=O)[C@H](NC(=O)[C@H](C)NC(=O)[C@@H]4CCCN4C(=O)CNC(=O)CNC(=O)[C@@H]4CCCN4C(=O)CN)O[C@H]3CO)O[C@@H](CO)[C@@H]2O)(C(=O)O)C[C@H]1O` was 5000 µM.
The value for `CC(=O)N[C@@H]1[C@H](OCCCCCCN)O[C@@H](CO)[C@@H](O[C@@H]2O[C@@H](CO)[C@H](O)[C@H](O[C@]3(C(=O)O)C[C@@H](O)[C@@H](NC(C)=O)[C@H]([C@H](O)[C@H](O)CO)O3)[C@@H]2O)[C@@H]1O[C@@H]1O[C@@H](C)[C@@H](O)[C@H](O)[C@@H]1O` was 1000 µM; that for `CC(=O)N[C@@H]1[C@H](OCCCCCCNC(=O)CCC(=O)O)O[C@@H](CO)[C@@H](O[C@@H]2O[C@@H](CO)[C@H](O)[C@H](O[C@]3(C(=O)O)C[C@@H](O)[C@@H](NC(C)=O)[C@H]([C@H](O)[C@H](O)CO)O3)[C@@H]2O)[C@@H]1O[C@@H]1O[C@@H](C)[C@@H](O)[C@H](O)[C@@H]1O` was 1150 µM.

The values above are taken from ChEMBL document CHEMBL1128983, “Synthesis and biological activity of novel sialyl-lewisX conjugates” (Bioorg Med Chem Lett, 1996).
